# Laboratory results published in ChEMBL document CHEMBL4359817 (J Med Chem, 2019).
# Legend:
# [1] = Lipophilicity, log D of the compound at pH 7.4; assay type: physicochemical; details: buffer
# [2] = Intrinsic clearance in human hepatocytes assessed per million cells; assay type: ADME, cell-based, Hepatocyte; details: read-out: CLH
# [3] = Intrinsic clearance in human microsomes; assay type: ADME, Microsome
# [4] = Intrinsic clearance in rat hepatocytes assessed per million cells; assay type: ADME, cell-based, Hepatocyte; details: read-out: CLH
# [5] = Clearance in iv or po dosed Han Wistar rat; assay type: ADME, organism-based; details: in vivo
# [6] = Volume of distribution at steady state in iv or po dosed Han Wistar rat; assay type: ADME, organism-based; details: in vivo, read-out: Vdss
# [7] = Oral bioavailability in Han Wistar rat; assay type: ADME, organism-based; details: in vivo
# [8] = Thermodynamic aqueous solubility of the compound at pH 7.4; assay type: physicochemical; details: read-out: Therm_solubility
# [9] = Thermodynamic aqueous solubility of the compound at pH 7.4 using amorphous form of sample; assay type: physicochemical; details: read-out: Therm_solubility
# [10] = Clearance in dog at 1 mg/kg, po or 0.5 mg/kg, iv; assay type: ADME, organism-based, Canis lupus familiaris; details: in vivo
# [11] = Oral bioavailability in dog at 1 mg/kg; assay type: ADME, organism-based, Canis lupus familiaris; details: in vivo
# [12] = Time at which plasma concentration stays above in vitro fGI50 for antiproliferative activity against human NCI-H1703 cells in nude mouse at 100 mg/kg, po; assay type: organism-based; details: in vivo
# [13] = Thermodynamic aqueous solubility of the compound at pH 7.4 using crystalline form of sample; assay type: physicochemical; details: read-out: Therm_solubility
# [14] = Volume of distribution at steady state in dog at 1 mg/kg, po or 0.5 mg/kg, iv; assay type: ADME, organism-based, Canis lupus familiaris; details: in vivo, read-out: Vdss
# [15] = Drug level in SCID mouse plasma xenografted with human NCI-H1703 cells at 100 mg/kg, po administered once daily via gavage for 21 days measured 4 hrs post-last dose; assay type: ADME, organism-based
# [16] = Drug level in SCID mouse plasma xenografted with human NCI-H1703 cells at 100 mg/kg, po administered once daily via gavage for 21 days measured 24 hrs post-last dose; assay type: ADME, organism-based
# [17] = Drug level in SCID mouse plasma xenografted with human NCI-H1703 cells assessed as free fraction at 100 mg/kg, po administered once daily via gavage for 21 days measured 4 hrs post-last dose; assay type: ADME, organism-based; details: in vivo
# [18] = Drug level in SCID mouse plasma xenografted with human NCI-H1703 cells assessed as free fraction at 100 mg/kg, po administered once daily via gavage for 21 days measured 24 hrs post-last dose; assay type: ADME, organism-based; details: in vivo
# [19] = Time at which plasma concentration stays above in vitro fGI50 for antiproliferative activity against human NCI-H1703 cells in SCID mouse at 100 mg/kg, po; assay type: organism-based; details: in vivo
# [20] = Clearance in Han Wistar rat at 2 mg/kg, po or 0.5 mg/kg, iv; assay type: ADME, organism-based; details: in vivo
# [21] = Volume of distribution at steady state in Han Wistar rat at 2 mg/kg, po or 0.5 mg/kg, iv; assay type: ADME, organism-based; details: in vivo, read-out: Vdss
# [22] = Oral bioavailability in Han Wistar rat at 2 mg/kg; assay type: ADME, organism-based; details: in vivo
# [23] = Time at which plasma concentration stays above in vitro GI50 for antiproliferative activity against human NCI-H1703 cells in SCID mouse at 100 mg/kg, po; assay type: organism-based; details: in vivo
# [24] = Clearance in CD1 mouse at 100 mg/kg, po; assay type: ADME, organism-based; details: in vivo
# [25] = Time at which plasma concentration stays above in vitro fGI50 for antiproliferative activity against human NCI-H1703 cells in SCID mouse at 100 mg/kg, po administered twice daily; assay type: organism-based; details: in vivo
# [26] = Clearance in Han Wistar rat at 1 mg/kg, po or 0.5 mg/kg, iv; assay type: ADME, organism-based; details: in vivo
# [27] = Volume of distribution at steady state in Han Wistar rat at 1 mg/kg, po or 0.5 mg/kg, iv; assay type: ADME, organism-based; details: in vivo, read-out: Vdss
# [28] = Oral bioavailability in Han Wistar rat at 1 mg/kg; assay type: ADME, organism-based; details: in vivo
structure (smiles),measurement,setting,value
O=C(Cc1ccccc1)Nc1nnc(CCSCCc2nnc(NC(=O)Cc3ccccc3)s2)s1,logD,[1]; read-out: logD,> 4
O=C(Cc1cccc(OC(F)(F)F)c1)Nc1ccc(CCCCc2nnc(NC(=O)Cc3ccccn3)s2)nn1,logD,[1],3.9
same,hepatocyte CLint,[2],8 µL/min/1e6 cells
same,microsomal CLint,[3],15 µL/min/mg
same,hepatocyte CLint,[4],30.2 µL/min/1e6 cells
same,clearance,[5],0.84 L/h/kg
same,Vd,[6],3 L/kg
same,bioavailability,[7],32%
O=C(Cc1ccccc1)Nc1nnc(CCCCCc2nnc(NC(=O)Cc3ccccc3)s2)s1,solubility thermodynamic,[8],< 0.6 µM
O=C(Cc1ccccc1)Nc1nnc(CCCCc2nnc(NC(=O)Cc3ccccc3)s2)s1,solubility thermodynamic,[8],< 0.4 µM
O=C(Cc1ccccc1)Nc1nnc(CCCc2nnc(NC(=O)Cc3ccccc3)s2)s1,solubility thermodynamic,[8],< 0.6 µM
same,logD,[1]; read-out: logD,3.6
O=C(Cc1ccccc1)Nc1nnc(N[C@@H]2CCN(c3nnc(NC(=O)Cc4ccccc4)s3)C2)s1,solubility thermodynamic,[8],< 0.8 µM
same,logD,[1]; read-out: logD,3.8
CO[C@H](C(=O)Nc1nnc(N[C@@H]2CCN(c3nccnn3)C2)s1)c1ccccc1,logD,[1]; read-out: logD,1.7
same,hepatocyte CLint,[2],3 µL/min/1e6 cells
same,microsomal CLint,[3],3 µL/min/mg
same,hepatocyte CLint,[4],4.1 µL/min/1e6 cells
same,clearance,[5],0.72 L/h/kg
same,Vd,[6],0.6 L/kg
same,bioavailability,[7],41%
same,solubility thermodynamic,[9],516 µM
same,clearance,[10],0.06 L/h/kg
same,bioavailability,[11],90%
same,Time,[12],24 h
CO[C@H](C(=O)Nc1nnc(N[C@@H]2CCN(c3cccnn3)C2)s1)c1ccccc1,logD,[1]; read-out: logD,1.9
same,hepatocyte CLint,[2],< 1 µL/min/1e6 cells
same,microsomal CLint,[3],< 3 µL/min/mg
same,hepatocyte CLint,[4],4.6 µL/min/1e6 cells
same,clearance,[5],2.1 L/h/kg
same,Vd,[6],2.4 L/kg
same,bioavailability,[7],47%
same,solubility thermodynamic,[13],78 µM
same,clearance,[10],0.24 L/h/kg
same,Vd,[14],0.3 L/kg
same,bioavailability,[11],60%
same,concentration at 4 h,[15],3.57 µM
same,concentration at 24 h,[16],3.63 µM
same,Cp(f),[17],0.582 µM
same,Cp(f),[18],0.592 µM
same,Time,[19],24 h
O=C(Cc1ccccc1)Nc1nnc(N[C@@H]2CCC[C@H]2Nc2nnc(NC(=O)Cc3ccccc3)s2)s1,logD,[1]; read-out: logD,4.3
Nc1nnc(N2CC[C@@H](Nc3nnc(NC(=O)Cc4ccccc4)s3)C2)s1,solubility thermodynamic,[8],95 µM
same,logD,[1]; read-out: logD,1.9
CC(=O)N1CCCCC1CC(=O)Nc1nnc(N2CC[C@@H](Nc3nnc(NC(=O)Cc4ccccc4)s3)C2)s1 (some centres undefined),solubility thermodynamic,[8],20 µM
same,logD,[1]; read-out: logD,2.7
O=C(Cc1ccccc1)Nc1nnc(N[C@@H]2CCN(c3nccnn3)C2)s1,solubility thermodynamic,[8],94 µM
same,logD,[1]; read-out: logD,2.06
same,microsomal CLint,[3],< 3 µL/min/mg
same,hepatocyte CLint,[4],5 µL/min/1e6 cells
same,clearance,[20],3.24 L/h/kg
same,Vd,[21],2 L/kg
same,bioavailability,[22],83%
Nc1nnc(N[C@@H]2CCN(c3ccc(NC(=O)Cc4ccccc4)nn3)C2)s1,solubility thermodynamic,[8],20 µM
same,logD,[1]; read-out: logD,0.85
CN(CCN(C)c1nnc(NC(=O)Cc2ccccc2)s1)c1nnc(NC(=O)Cc2ccccc2)s1,solubility thermodynamic,[8],< 1 µM
same,logD,[1]; read-out: logD,3.5
O=C(Cc1ccccc1)Nc1nnc(N[C@@H]2CCN(c3nnc(NC(=O)CC4CCOCC4)s3)C2)s1,solubility thermodynamic,[8],10 µM
same,logD,[1]; read-out: logD,3.2
Nc1nnc(N[C@@H]2CCN(c3nnc(NC(=O)Cc4ccccc4)s3)C2)s1,solubility thermodynamic,[8],5 µM
same,logD,[1]; read-out: logD,1.8
O=C(Cc1ccccc1)Nc1nnc(NCCNc2nnc(NC(=O)Cc3ccccc3)s2)s1,solubility thermodynamic,[8],< 3 µM
O=C(Cc1ccccc1)Nc1nnc(N[C@@H]2CCN(c3cccnn3)C2)s1,solubility thermodynamic,[8],14 µM
same,logD,[1]; read-out: logD,2.2
same,hepatocyte CLint,[2],< 1 µL/min/1e6 cells
same,microsomal CLint,[3],3 µL/min/mg
same,hepatocyte CLint,[4],2 µL/min/1e6 cells
same,clearance,[5],3 L/h/kg
same,Vd,[6],1.6 L/kg
same,bioavailability,[7],2%
same,Time,[23],10 h
same,CL/F,[24],6.06 L/h/kg
CC(=O)Nc1nnc(N2CC[C@@H](Nc3nnc(NC(=O)Cc4ccccc4)s3)C2)s1,solubility thermodynamic,[8],3 µM
same,logD,[1]; read-out: logD,2.5
O=C(Cc1ccccc1)Nc1nnc(NC[C@H]2CCN(c3nnc(NC(=O)Cc4ccccc4)s3)C2)s1,solubility thermodynamic,[8],< 0.8 µM
same,logD,[1]; read-out: logD,> 4.2
O=C(NCc1ccccc1)c1nnc(N[C@@H]2CCN(c3nccnn3)C2)s1,solubility thermodynamic,[8],> 228 µM
same,logD,[1]; read-out: logD,2.2
same,microsomal CLint,[3],3 µL/min/mg
CN1CCC(CC(=O)Nc2nnc(N3CC[C@@H](Nc4nnc(NC(=O)Cc5ccccc5)s4)C3)s2)CC1,solubility thermodynamic,[8],150 µM
same,logD,[1]; read-out: logD,1.3
O=C(Cc1ccccc1)Nc1nnc(N[C@@H]2CCN(c3nncs3)C2)s1,solubility thermodynamic,[8],130 µM
same,logD,[1]; read-out: logD,2.1
C[C@H](C(=O)Nc1nnc(N[C@@H]2CCN(c3cccnn3)C2)s1)c1ccccc1,logD,[1]; read-out: logD,2.6
same,microsomal CLint,[3],< 3 µL/min/mg
same,hepatocyte CLint,[4],8.7 µL/min/1e6 cells
same,clearance,[5],3.3 L/h/kg
same,Vd,[6],1.9 L/kg
same,bioavailability,[7],0%
same,solubility thermodynamic,[9],329 µM
same,Time,[19],15 h
same,Time,[25],24 h
O=C(NCc1ccccc1)c1nnc(N[C@@H]2CCN(c3cccnn3)C2)s1,solubility thermodynamic,[8],> 559 µM
same,logD,[1]; read-out: logD,2.24
same,microsomal CLint,[3],< 3 µL/min/mg
same,hepatocyte CLint,[4],31 µL/min/1e6 cells
same,clearance,[26],6 L/h/kg
same,Vd,[27],2.7 L/kg
same,bioavailability,[28],12%
